This is an account of results in US20120238488A1, “COMPOUNDS AND METHODS FOR TREATING NEOPLASIA” (priority 2009, published 2012).

One may read the GI50 as the concentration giving 50% growth inhibition. The term TGI denotes the concentration at which net growth stops. A lower TGI goes with more potent growth arrest.

In data set [1] the test system is HCT116 colon cancer, PC3 and DU145 prostate cancer cell lines. Nature of the data set: MTT proliferation/viability assay. The data set is classed as cell-based. To be noted: 72 h, FIGS. 1A-1D, HCT116 only compound 120. The protocol: All assays were performed in triplicate.
The effect of the different compounds on the proliferation and viability of cancer cell lines was tested. Compound 120 was tested in one colon cancer cell line (HCT116), and compound Nos. 120, 12, 61, 1, and 56 were tested in two prostate cancer cell lines (PC3 and DU145). […] This colorimetric assay uses the reduction of MTT to formazan as a measure of metabolic activity. Untreated cells cultured in the presence of serum were used as a negative control.

Another data set relates to LOXIMVI (Melanoma). The experiment in a line: SRB assay, LOXIMVI. The data set is classed as cell-based, human. To be noted: 48 h. The method, then: (§1) SRB assays were performed according to standard National Cancer Institute Guidelines. Briefly, human tumor cells from different cancer panels were seeded into 96 well plates in 100 μL (plating densities ranging from 5-40,000 cells/well depending on the doubling time of individual cell lines) in serum-containing media for twenty-four hours prior to the addition of the compounds to be assayed. After 24 hours, one plate of each cell line was fixed in situ with trichloroacetic acid (TCA). The fixed slides were used to determine the cell population for each cell line at the time of drug addition (Tz). Each compound to be tested was solubilized in DMSO and the desired concentration was then added to the medium and diluted serially 1:10 to provide a total of five or ten drug concentrations plus control (in a final volume of 200 μL). The starting dose before any dilution was 100 uM for all compounds.
(§2) Following drug addition, each culture was incubated for forty-eight hours. The assay was terminated with the addition of cold TCA. The supernatant was discarded, and the plates were washed with tap water and air dried. Sulforhodamine B (SRB) solution was then added to each well. After staining, the bound stain was solubilized and the absorbance was read on an automated plate reader at a wavelength of 515 nm.
(§3) Using the absorbance measurements [time zero, (Tz), control growth, (C), and test growth in the presence of drug at the ten concentration levels (Ti)], the percentage growth was calculated at each of the drug concentrations levels. Percentage growth inhibition was calculated as:
(§4) [(Ti−Tz)/(C−Tz)]×100 for concentrations for which Ti>/=Tz
(§5) [(Ti−Tz)/Tz]×100 for concentrations for which Ti<Tz.
(§6) Three dose response parameters were calculated for each experimental agent. Growth inhibition of 50% (GI50) was calculated from [(Ti−Tz)/(C−Tz)]×100=50, which was the drug concentration resulting in a 50% reduction in the net protein increase (as measured by SRB staining) in control cells during the drug. The drug concentration resulting in total growth inhibition (TGI) was calculated from Ti=Tz. The LC50 (concentration of drug resulting in a 50% reduction in the measured protein at the end of the drug treatment as compared to that at the beginning) indicating a net loss of cells following treatment was calculated from [(Ti−Tz)/Tz]×100=−50.
(§7) Values were calculated for each of these three parameters when the level of activity was reached; however, if the effect was not reached or was exceeded, the value for that parameter was expressed as greater or less than the maximum or minimum concentration tested.
(§8) Table 4 summarizes results characterizing the effects of compound Nos. 120, 12, 61, 1, and 56 on GI50, which measures the cell growth inhibitory power of the compound, TGI, which measures cytostatic effect (TGI) and LC50, which signifies cytotoxic effect. Each of these parameters in Table 4 was calculated in a sulforhodamine B (SRB) assay, which provides a colorimetric measure of a compound's anti-cancer activity. SRB assays were performed with compounds of the invention in 22 different cell lines (shaded in light gray in Table 4), which represent nine different tumor panels (lung, melanoma, ovary, prostate, CNS, breast, pancreas colon and renal). Ouabain and digoxin were used as controls. Paclitaxel was added as a non-Na^+K^+-ATPase inhibitor control.
(The SRB assay estimates cell density from bound dye.)

For a further data set, the system named is H160 (Lung). Nature of the data set: SRB assay, H160. The data set is classed as cell-based, human. To be noted: 48 h. The method, then:
as §1, §2, §3, §4, §5, §6, §7, §8

A further data set relates to IGROV1 (Ovary). Nature of the data set: SRB assay, IGROV1. The data set is classed as cell-based, human. The method, then:
as §1, §2, §3, §4, §5, §6, §7, §8

In data set [2] the test system is 22 different cell lines, nine tumor panels (lung, melanoma, ovary, prostate, CNS, breast, pancreas colon and renal). Nature of the data set: SRB assay, all tumor cell line panels (summary statements). The class given is cell-based, human. To be noted: for viability and/or cell proliferation of neoplastic cell lines: lung, breast, CNS, colon, prostate, ovary, pancreas, kidney and melanoma lines, including a multidrug resistant cell line. The method, then: as §1, §2, §3
Three dose response parameters were calculated for each experimental agent. […] The drug concentration resulting in total growth inhibition (TGI) was calculated from Ti=Tz. The LC50 (concentration of drug resulting in a 50% reduction in the measured protein at the end of the drug treatment as compared to that at the beginning) indicating a net loss of cells following treatment was calculated from [(Ti−Tz)/Tz]×100=−50.
Each of these parameters in Table 4 was calculated in a sulforhodamine B (SRB) assay, which provides a colorimetric measure of a compound's anti-cancer activity. SRB assays were performed with compounds of the invention in 22 different cell lines (shaded in light gray in Table 4), which represent nine different tumor panels (lung, melanoma, ovary, prostate, CNS, breast, pancreas colon and renal). […] Paclitaxel was added as a non-Na^+K^+-ATPase inhibitor control.

In another data set the test system is SU8686 (Pancreas). The experiment in a line: SRB assay, SU8686. The data set is classed as cell-based, human. The method, then: as §1, §2, §3, §4, §5, §6, §7, §8
In the next data set the test system is U251 (CNS). Nature of the data set: SRB assay, U251. The class given is cell-based, human. The protocol: as §1, §2, §3, §4, §5, §6, §7, §8
The test system of another data set is MCF7 (Breast). Nature of the data set: SRB assay, MCF7. The data set is classed as cell-based, human. The method, then:
as §1, §2, §3, §4, §5, §6, §7, §8

The test system of the next data set is HCT15 (Colon). Nature of the data set: SRB assay, HCT15. The data set is classed as cell-based, human. The protocol: as §1, §2, §3, §4, §5, §6, §7, §8
The test system of data set [3] is A549 xenografts (lung carcinoma). Nature of the data set: A549 xenograft anti-tumor activity. The class given is in vivo, Nod/Scid mice. The protocol: All administrations were intraperitoneal.
At day 20 post inoculation (dpi), mean tumor volume was measured at 117.6 mm^3.
Compound 56 was administered intraperitoneallly using a [(QD×5;2) ×5] scheme. Paclitaxel, used as a positive control, was injected twice weekly for 5 cycles (Tuesday & Friday).

With `C[C@]12CCC(=NOCCN)C=C1CCC1C2CC[C@@]2(C)C1CC[C@@H]2O` (stereo partly drawn) [Compound 120, (1S,9aR,11aS)-17-hydroxy-10,13-dimethyl-6,7,8,9,10,11,12,13,14,15,16,17-dodecahydro-1H-cyclopenta[a]phenanthren-3(2H)-one O-2-aminoethyl oxime], the “inhibition of cell proliferation and viability (MTT)” value in data set [1] is “strong inhibition of cell proliferation and viability”. The CC50 in the data set on LOXIMVI (Melanoma) (Homo sapiens, LOX IMVI, read-out: LC50) amounted to 97.2 µM; in the data set with H160 (Lung) (Homo sapiens, read-out: LC50) it was 21.7 µM; in the data set with IGROV1 (Ovary) (Homo sapiens, IGROV-1, 48 h, read-out: LC50), 67.4 µM; in the data set with SU8686 (Pancreas) (Homo sapiens, SU.86.86, 48 h, read-out: LC50), 23.1 µM; in the data set with U251 (CNS) (Homo sapiens, U-251, 48 h, read-out: LC50) it was 68.5 µM; with MCF7 (Breast) (Homo sapiens, MCF7, 48 h, read-out: LC50) it was 24.1 µM. For the same compound, the CC50 in the data set on HCT15 (Colon) (Homo sapiens, HCT-15, 48 h, read-out: LC50) is 76.3 µM. Also, the GI50 was determined as 7.14 µM with LOXIMVI (Melanoma) (Homo sapiens, LOX IMVI, LOXIMVI, SRB); 4.13 µM in the data set with H160 (Lung) (Homo sapiens, H160, SRB); 5.49 µM in the data set on IGROV1 (Ovary) (Homo sapiens, IGROV-1, IGROV1, SRB, 48 h); 7.45 µM in the data set on SU8686 (Pancreas) (Homo sapiens, SU.86.86, SU8686, SRB, 48 h); 6.77 µM in the data set with U251 (CNS) (Homo sapiens, U-251, U251, SRB, 48 h, read-out: GI50); 7.04 µM in the data set on MCF7 (Breast) (Homo sapiens, MCF7, SRB, 48 h). In addition, in the data set with HCT15 (Colon) (Homo sapiens, HCT-15, HCT15, SRB, 48 h), the GI50 stood at 6.39 µM. In addition, the TGI with LOXIMVI (Melanoma) (LOXIMVI, SRB) is 25.19 µM; in the data set on H160 (Lung) (H160, SRB), 11.68 µM; with IGROV1 (Ovary) (IGROV1, SRB, 48 h), 10.74 µM; in the data set on SU8686 (Pancreas) (SU8686, SRB, 48 h), 15.27 µM; with U251 (CNS) (U251, SRB, 48 h) it was 27.92 µM; in the data set on MCF7 (Breast) (MCF7, SRB, 48 h) it was 14.85 µM. The concentration for total growth inhibition (TGI) in the data set with HCT15 (Colon) (HCT15, SRB, 48 h) is 23.51 µM. Also, in data set [2] (SRB, all cell line panels), the “GI50 action in all cell line panels tested (in words)” value is “mostly single-digit micromolar GI50 action”. Further, the “viability and/or cell proliferation of neoplastic cell lines” value in data set [2] is on record as “reduced the viability and/or cell proliferation”.

In the case of `C[C@]12CCC(=NOC3CCNC3)CC1CCC1C2CC[C@]2(C)C(=O)CCC12` (stereo partly drawn) [Compound 56, (10S,13S)-10,13-dimethyl-3-(pyrrolidin-3-yloxyimino)tetradecahydro-1H-cyclopenta[a]phenanthren-17(2H)-one], the “inhibition of cell proliferation and viability (MTT)” value in data set [1] was “strong inhibition of cell proliferation and viability”. In [2] (Homo sapiens, SRB, all cell line panels, read-out: GI50 activity for all cell line panels tested), the GI50 was below 0.1 µM. Further, the “GI50 action in all cell line panels tested (in words)” value in data set [2] (SRB, all cell line panels) is “nanomolar GI50 action”. Further, in data set [2], the “viability and/or cell proliferation of neoplastic cell lines” value is “reduced the viability and/or cell proliferation”. Further, in [3] (A549 xenograft mice, 20 mgk intraperitoneal), the weight changes result was “no significant weight changes”. Also, the DT/DC in [3] (A549 xenografts, day 24, compound 56 20 mgk, paclitaxel 18 mgk, intraperitoneal) is given as −10.47%. Besides, the “post mortem analysis on excised tumors: tumor growth inhibition” value in data set [3] (A549 xenografts, compound 56 20 mgk, paclitaxel 18 mgk) is “statistical significant tumor growth inhibition”. In [3] (mouse, in vivo), the “anti-tumor activity in A549 xenografts (FIG. 2B)” value is “has anti-tumor activities”.
